Source: patent US11479546B2, “Antimalarial hexahydropyrimidine analogues” (UCB Biopharma SRL, priority 2018, dated 2022)

What follows are compounds tested on Plasmodium falciparum 3D7 (assay: P. falciparum 3D7 asexual blood stage assay, Assay Procedure Version 1 (SYBR green readout)). Details: 3D7, Erythrocyte, Version 1 of the assay procedure (no asterisk), 72 h incubation in infected erythrocytes, 10,000 nM to 0.51 nM.
Type: cell-based
Method: Asexual Blood Stage Assay
The assay used to measure the effect of test compounds on a bloodstream stage of Plasmodium falciparum 3D7 strain employs SYBR green as the readout. This is a dye that binds to double stranded deoxyribonucleic acid (DNA) with a resulting increase in fluorescence, allowing detection of P. falciparum DNA in infected erythrocytes, and thereby providing a measure of parasite growth and propagation.
P. falciparum Culture Maintenance
Erythrocytes (A+blood) were prepared for both parasite culture and assay by washing 4 times with incomplete media (15.9 g RPMI 1640 (25 mM HEPES, L-glutamine), 1 g NaHCO3, 2 g glucose, 400 μL gentacin (500 mg/mL), 2 mL hypoxanthine solution (13.6 g/L in 0.1M NaOH pH 7.3) in 1 litre of media). The cells were centrifuged at 1800 g for 5 minutes, before decanting the supernatant and re-suspending in fresh incomplete media. On the final wash, the cells were re-suspended in complete media (incomplete media with 5 g/L AlbumaxII), and centrifuged at 1800 g for 3 minutes. This cell sediment was treated as 100% haematocrit.
P. falciparum 3D7 was cultured in erythrocytes at 5% haematocrit in complete media at 37° C. (1% O2, 3% CO2, balance N2). Cultures were split on a weekly basis to achieve a 1% parasitaemia in erythrocites at 5% haematocrit in fresh media. Culture media is replaced by fresh media every other day (2 times during the week).
Assay Procedure—Version 1
On day 1, test compounds were added to assay plates using Echo dispensing technology (3 fold dilution and 10 points titration). 50 nL of each compound dilution was added to 50 μL of culture (5% haematocrit, 0.5% parasitaemia) and incubated for 72 h at 37° C. (1% O2, 3% CO2, balance N2). Final concentrations of test compounds ranged from 10,000 nM to 0.51 nM, in […].
On day 4, 10 μL SYBR green (Invitrogen S7563 supplied as 10,000×concentrate in DMSO) pre-diluted to 3× concentrate with Lysis buffer (20 mM Tris pH 7.9, 5% EDTA, 0.16% w/v, 1.6% TX100 v/v) was added to the cultures and incubated in the dark, overnight, at room temperature.
On day 5, fluorescent signal was measured using a BioTek plate reader (excitation 485 nm, emission 528 nm). All data were processed using IDBS ActivityBase. Raw data were converted into percent inhibition through linear regression by setting the high inhibition control as 100% and the no inhibition control as 0%. Quality control criteria for passing plates were as follows: Z′>0.5, S:B>3, % CV(no inhibition control)<15. The formula used to calculate Z′ is
All EC50 curve fitting was undertaken using the following 4 parametric equation:
[formula] where A=% inhibition at bottom; B=% inhibition at top; C=EC50; D=slope; x=inhibitor concentration; and y=% inhibition. […] Assay Procedure—Version 2

Structure (SMILES) | IC50
C[C@@]1(c2cccc(Nc3cn4ccccc4n3)c2Cl)CC(=O)N(C2CCOCC2)C(=N)N1 [Example 35, (6S)-6-[2-Chloro-3-(imidazo-[1,2-a]pyridin-2-ylamino)-phenyl]-2-imino-6-methyl-3-(tetrahydropyran-4-yl)-hexahydropyrimidin-4-one] | 2.38 µM
C[C@@]1(c2cccc(Nc3ccccc3F)c2Cl)CC(=O)N(C2CCOCC2)C(=N)N1 [Example 36, (6S)-6-[2-Chloro-3-(2-fluoro-anilino)phenyl]-2-imino-6-methyl-3-(tetrahydropyran-4-yl)hexahydropyrimidin-4-one] | 2.9 µM
C[C@@]1(c2cccc(Nc3ccc(OC(F)F)cc3)c2Cl)CC(=O)N(C2CCOCC2)C(=N)N1 [Example 37, (6S)-6-{2-Chloro-3-[4-(difluoro-methoxy)anilino]phenyl}-2-imino-6-methyl-3-(tetrahydro-pyran-4-yl)hexahydropyrimidin-4-one] | 1.15 µM
C[C@@]1(c2cccc(Nc3cc(F)c(F)cc3F)c2Cl)CC(=O)N(C2CCOCC2)C(=N)N1 [Example 38, (6S)-6-[2-Chloro-3-(2,4,5-trifluoroanilino)phenyl]-2-imino-6-methyl-3-(tetrahydro-pyran-4-yl)hexahydropyrimidin-4-one] | 0.811 µM
C[C@@]1(c2cccc(Nc3ccc(S(C)(=O)=O)cc3)c2Cl)CC(=O)N(C2CCOCC2)C(=N)N1 [Example 39, (6S)-6-[2-Chloro-3-(4-methyl-sulfonylanilino)phenyl]-2-imino-6-methyl-3-(tetrahydro-pyran-4-yl)hexahydropyrimidin-4-one] | 2.09 µM
C[C@@]1(c2cccc(Nc3ccc(C#N)nc3)c2Cl)CC(=O)N(C2CCOCC2)C(=N)N1 [Example 40, 5-{2-Chloro-3-[(4S)-2-imino-4-methyl-6-oxo-1-(tetrahydro-pyran-4-yl)hexahydropyrimidin-4-yl]anilino}pyridine-2-carbo-nitrile] | 1.51 µM
C[C@@]1(c2cccc(Nc3cccc(S(C)(=O)=O)c3)c2Cl)CC(=O)N(C2CCOCC2)C(=N)N1 [Example 41, (6S)-6-[2-Chloro-3-(3-methyl-sulfonylanilino)phenyl]-2-imino-6-methyl-3-(tetrahydro-pyran-4-yl)hexahydropyrimidin-4-one] | 1.95 µM
C[C@@]1(c2cccc(Nc3ccc(F)cc3F)c2Cl)CC(=O)N([C@H]2C[C@@](C)(O)C2)C(=N)N1 [Example 120, (6S)-6-[2-Chloro-3-(2,4-difluoroanilino)phenyl]-3-(3-hydroxy-3-methylcyclobutyl)-2-imino-6-methylhexahydro-pyrimidin-4-one] | 0.652 µM
C[C@@]1(c2cccc(Nc3ccc(C#N)c(F)c3)c2Cl)CC(=O)N([C@H]2C[C@@](C)(O)C2)C(=N)N1 [Example 121, 4-{2-Chloro-3-[(4S)-1-(3-hydroxy-3-methylcyclobutyl)-2-imino-4-methyl-6-oxo-hexahydropyrimidin-4-yl]-anilino}-2-fluorobenzonitrile] | 1.66 µM
COc1ccc(Nc2cccc([C@]3(C)CC(=O)N(C4CCOCC4)C(=N)N3)c2Cl)cc1 [Example 159, (6S)-6-[2-Chloro-3-(4-methoxy-anilino)phenyl]-2-imino-6-methyl-3-(tetrahydropyran-4-yl)hexahydropyrimidin-4-one] | 2.27 µM
Cc1ccc(Nc2cccc([C@]3(C)CC(=O)N(C4CCOCC4)C(=N)N3)c2Cl)cc1 [Example 160, (6S)-6-[2-Chloro-3-(4-methyl-anilino)phenyl]-2-imino-6-methyl-3-(tetrahydropyran-4-yl)hexahydropyrimidin-4-one] | 1.69 µM
COc1cc(Nc2cccc([C@]3(C)CC(=O)N(C4CCOCC4)C(=N)N3)c2Cl)cc(OC)c1 [Example 161, (6S)-6-[2-Chloro-3-(3,5-dimethoxyanilino)phenyl]-2-imino-6-methyl-3-(tetrahydro-pyran-4-yl)hexahydropyrimidin-4-one] | 1.68 µM
C[C@@]1(c2cccc(Nc3ccc(Cl)cc3)c2Cl)CC(=O)N(C2CCOCC2)C(=N)N1 [Example 162, (6S)-6-[2-Chloro-3-(4-chloro-anilino)phenyl]-2-imino-6-methyl-3-(tetrahydropyran-4-yl)hexahydropyrimidin-4-one] | 0.905 µM
C[C@@]1(c2cccc(Nc3cccc(C(F)(F)F)c3)c2Cl)CC(=O)N(C2CCOCC2)C(=N)N1 [Example 163, (6S)-6-{2-Chloro-3-[3-(trifluoromethyl)anilino]-phenyl}-2-imino-6-methyl-3-(tetrahydropyran-4-yl)-hexahydropyrimidin-4-one] | 0.913 µM
COc1ccc(Nc2cccc([C@]3(C)CC(=O)N(C4CCOCC4)C(=N)N3)c2Cl)cc1OC [Example 164, (6S)-6-[2-Chloro-3-(3,4-dimethoxyanilino)phenyl]-2-imino-6-methyl-3-(tetrahydro-pyran-4-yl)hexahydropyrimidin-4-one] | 2.2 µM

The next lines start with the values.

IC50 | Structure (SMILES)
0.89 µM | Cc1ccccc1Nc1cccc([C@]2(C)CC(=O)N(C3CCOCC3)C(=N)N2)c1Cl [Example 165, (6S)-6-[2-Chloro-3-(2-methyl-anilino)phenyl]-2-imino-6-methyl-3-(tetrahydropyran-4-yl)hexahydropyrimidin-4-one]
1.78 µM | COC(=O)c1cccc(Nc2cccc([C@]3(C)CC(=O)N(C4CCOCC4)C(=N)N3)c2Cl)c1 [Example 166, Methyl 3-{2-chloro-3-[(4S)-2-imino-4-methyl-6-oxo-1-(tetrahydropyran-4-yl)-hexahydropyrimidin-4-yl]-anilino}benzoate]
0.627 µM | C[C@@]1(c2cccc(Nc3ccc(F)c(Cl)c3)c2Cl)CC(=O)N(C2CCOCC2)C(=N)N1 [Example 167, (6S)-6-[2-Chloro-3-(3-chloro-4-fluoroanilino)phenyl]-2-imino-6-methyl-3-(tetrahydropyran-4-yl)hexahydropyrimidin-4-one]
0.252 µM | C[C@@]1(c2cccc(Nc3cccc(F)c3)c2Cl)CC(=O)N(C2CCOCC2)C(=N)N1 [Example 168, (6S)-6-[2-Chloro-3-(3-fluoro-anilino)phenyl]-2-imino-6-methyl-3-(tetrahydropyran-4-yl)hexahydropyrimidin-4-one]
1.14 µM | C[C@@]1(c2cccc(Nc3ccc(F)cc3)c2Cl)CC(=O)N(C2CC3(COC3)C2)C(=N)N1 [Example 171, (6S)-6-[2-Chloro-3-(4-fluoro-anilino)phenyl]-2-imino-6-methyl-3-(2-oxaspiro[3.3]-heptan-6-yl)hexahydro-pyrimidin-4-one]
0.228 µM | CC1(O)CC(N2C(=N)N[C@](C)(c3cccc(Nc4ccc(F)cc4)c3Cl)CC2=O)C1 (stereo partly drawn) [Example 172, (6S)-6-[2-Chloro-3-(4-fluoro-anilino)phenyl]-3-(3-hydroxy-3-methylcyclobutyl)-2-imino-6-methylhexahydropyrimidin-4-one]
1.54 µM | C[C@@]1(c2cccc(Nc3ccc(C(F)(F)F)cc3)c2Cl)CC(=O)N(CC2CCOCC2)C(=N)N1 [Example 173, (6S)-6-{2-Chloro-3-[4-(trifluoromethyl)anilino]-phenyl}-2-imino-6-methyl-3-(tetrahydropyran-4-ylmethyl)-hexahydropyrimidin-4-one]
2.82 µM | CC1(CN2C(=N)N[C@](C)(c3cccc(Nc4ccc(F)cc4)c3Cl)CC2=O)COC1 [Example 175, (6S)-6-[2-Chloro-3-(4-fluoro-anilino)phenyl]-2-imino-6-methyl-3-[(3-methyloxetan-3-yl)methyl]hexahydropyrimidin-4-one]
0.243 µM | C[C@@]1(c2ccc(F)c(Nc3ccc(F)cc3)c2Cl)CC(=O)N(C2CCOCC2)C(=N)N1 [Example 206, (6S)-6-[2-Chloro-4-fluoro-3-(4-fluoroanilino)phenyl]-2-imino-6-methyl-3-(tetrahydro-pyran-4-yl)hexahydropyrimidin-4-one]
0.659 µM | Cc1ccc(Nc2c(F)ccc([C@]3(C)CC(=O)N(C4CCOCC4)C(=N)N3)c2Cl)cn1 [Example 207, (6S)-6-{2-Chloro-4-fluoro-3-[(6-methylpyridin-3-yl)amino]phenyl}-2-imino-6-methyl-3-(tetrahydropyran-4-yl)hexahydropyrimidin-4-one]
